Reference: US11311522B1 (Cavion, Inc., priority 2018, dated 2022)

Tests used:
[1] = 4-week oral toxicology in rats (with FOB); conditions: for NOAEL at 4 weeks / AUC / Cmax: rat; for NOAEL at 4 weeks: in vivo; for AUC / Cmax: plasma, Day 28, mean (SD)
[2] = PN001/Part II: safety and tolerability; format: in vivo, human
Method: No serious adverse events were reported in the subjects who received CX-8998. One placebo-treated subject experienced a serious adverse event (peritonsillar abscess). The subject was admitted to the hospital for treatment with oral and intravenous antibiotics and was discontinued from the study because of this event. […] Each treatment period was separated from the previous one by an approximate 2-week washout, and all treatments were administered in the morning after an overnight fast. Electroencephalograms were recorded before and at selected time points for up to 24 hours after dosing in each treatment period. Cognitive and subjective assessments, including the Karolinska Sleepiness Scale and Bond-Lader visual analog scale, were also performed. 5.3.1.2.2 Pharmacodynamic Data Alpha rhythm is seen posterior brain regions in healthy adults during quiet wakefulness. It originates in the thalamus and is driven by Cav3 channel activity (Schreckenberger, 2004). Agitated, awake individuals may not display an alpha rhythm. […] Reductions in alpha power during the eyes closed position, were generally observed throughout the 24-hour postdose evaluation period for the 18 mg dose and were generally consistent across electrode sites.

hERG = molecular target: T1, hERG (Homo sapiens, UniProt Q12809); experiment: hERG whole-cell voltage-clamp (CHO-K1 cells); format: cell-based; conditions: hERG current
T1 construct: expressed in transfected cells; host or cells: CHO-K1
T1 sequence (Q12809 whole entry): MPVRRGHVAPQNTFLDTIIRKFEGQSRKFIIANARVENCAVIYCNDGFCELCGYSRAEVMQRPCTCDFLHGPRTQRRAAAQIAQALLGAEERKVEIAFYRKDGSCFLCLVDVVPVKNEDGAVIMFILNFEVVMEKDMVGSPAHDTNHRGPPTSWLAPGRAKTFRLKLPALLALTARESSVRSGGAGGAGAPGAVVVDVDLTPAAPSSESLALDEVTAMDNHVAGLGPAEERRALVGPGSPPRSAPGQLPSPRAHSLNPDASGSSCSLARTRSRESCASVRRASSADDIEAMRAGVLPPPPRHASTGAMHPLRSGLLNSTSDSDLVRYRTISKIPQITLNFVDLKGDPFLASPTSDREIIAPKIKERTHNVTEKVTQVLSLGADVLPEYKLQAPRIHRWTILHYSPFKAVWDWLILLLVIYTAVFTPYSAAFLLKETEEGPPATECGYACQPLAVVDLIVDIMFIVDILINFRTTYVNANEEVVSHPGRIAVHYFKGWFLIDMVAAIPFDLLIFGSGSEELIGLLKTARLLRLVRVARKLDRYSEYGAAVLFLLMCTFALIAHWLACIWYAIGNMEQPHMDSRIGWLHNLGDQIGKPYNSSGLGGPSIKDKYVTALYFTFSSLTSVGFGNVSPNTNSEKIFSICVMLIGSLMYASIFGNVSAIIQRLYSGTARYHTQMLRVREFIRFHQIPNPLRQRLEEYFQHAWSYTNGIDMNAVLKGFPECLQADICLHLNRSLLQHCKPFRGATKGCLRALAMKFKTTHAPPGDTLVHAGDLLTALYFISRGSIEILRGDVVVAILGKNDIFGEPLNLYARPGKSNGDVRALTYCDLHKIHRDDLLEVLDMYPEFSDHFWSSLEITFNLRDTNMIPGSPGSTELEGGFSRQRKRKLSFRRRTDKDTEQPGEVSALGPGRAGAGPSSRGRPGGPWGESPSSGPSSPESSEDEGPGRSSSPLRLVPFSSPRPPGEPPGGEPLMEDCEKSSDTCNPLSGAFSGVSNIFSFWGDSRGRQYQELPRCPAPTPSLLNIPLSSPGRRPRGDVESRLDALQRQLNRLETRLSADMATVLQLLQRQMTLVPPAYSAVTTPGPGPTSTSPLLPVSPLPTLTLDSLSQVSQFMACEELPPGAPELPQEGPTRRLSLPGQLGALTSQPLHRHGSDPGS

[3] = tested on: patients with essential tremor; experiment: T-CALM substudy: iMotor digital spirography; format: in vivo, human; conditions: dominant hand
From the text: The application requires the patient to complete a cycle of evaluations measuring motor function.
For the Archimedes spiral item of iMotor, subjects are asked to draw a spiral using a digital stylus on a tablet-based application. Prompts instruct the subject to trace a dotted grey mid-line that begins at the start of the spiral without lifting the stylus off the screen. The test is not timed. Subjects are asked to complete the task twice—one with the right and one with the left hand.
Functional tremor frequency (in Hz) is calculated by the iMotor algorithm based on the number and timing of stylus crosses of the mid-line. The mean change from baseline to Day 15 and Day 28 was calculated for the dominant hand. Statistical significance was calculated by Mann-Whitney non-parametric t-test (two tailed) (FIG. 5 and Table 5).

[4] = Exploratory embryofetal development study in rabbits
[5] = tested on: T2, guinea pig adenosine transporter; experiment: Adenosine transporter inhibition; format: biochemical; conditions: 10 μM
T2 construct: other: 10 μM

[6] = Sprague-Dawley rat, 30, 300, or 2000 mg/kg/day oral gavage for 4 weeks
[7] = Dutch Belted rabbit, oral gavage GD 7 through GD 20

For `CC(C)c1ccc(CC(=O)N[C@H](C)c2ccc(OCC(F)(F)F)cn2)cc1` [CX-8998], the FOB findings [1, 6] was “non-adverse FOB changes were also”, the “female reproductive organ findings (extended diestrus)” value [1, 6] was “Reversible changes” and the NOEL ([1]; both sexes) was under 30 mg/kg/day. For the same molecule, the NOAEL at 4 weeks ([1]; both, Sprague-Dawley, po) was 30 mg/kg, the “LOEL for the FOB” value ([1]; female rats, Day 1) was 30 mg/kg/day and the NOAEL at 4 weeks ([1]; female, oral) was under 30 mg/kg/day. The AUC ([1]; female, po, 300 mg/kg/day, AUC24, Female rats, 300 mg/kg/day oral gavage) was 438 µM·h, the Cmax ([1]; female, po, 300 mg/kg/day, Female rats, 300 mg/kg/day oral gavage) was 28.3 µM and the Cmax ([1]; female, po, 2000 mg/kg/day, Female rats, 2000 mg/kg/day oral gavage) was 33.5 µM. The NOAEL at 4 weeks ([1]; male, oral) was 30 mg/kg/day, the AUC ([1]; male, po, 30 mg/kg/day, AUC24, Male rats, 30 mg/kg/day oral gavage) was 35.1 µM·h and the Cmax ([1]; male, po, 300 mg/kg/day, Male rats, 300 mg/kg/day oral gavage) was 26.1 µM. The AUC ([1]; male, po, 2000 mg/kg/day, AUC24, Male rats, 2000 mg/kg/day oral gavage) was 467 µM·h, the Cmax ([1]; male, po, 2000 mg/kg/day, Male rats, 2000 mg/kg/day oral gavage) was 28.9 µM and the “At least 1 adverse event” value ([2]; 5 mg) was 8 (66.7) n (%). The Dizziness ([2]; 5 mg) was 1 (8.3) n (%), the Drowsiness ([2]; 5 mg) was 3 (25.0) n (%) and the Euphoric mood ([2]; 5 mg) was 1 (8.3) n (%). For the same molecule, the Feeling of relaxation ([2]; 5 mg) was 1 (8.3%) n (%), the Floating feeling ([2]; 5 mg) was 1 (8.) n (%) and the “Gastrointestinal Disorders” value ([2]; 5 mg) was 2 (16.7) n (%). For the same molecule, the Headache ([2]; 5 mg) was 1 (8.3) n (%), the Intermittent headache ([2]; 5 mg) was 0 n (%) and the Nausea ([2]; 5 mg) was 2 (16.7) n (%). The “Nervous System Disorders” value ([2]; 5 mg) was 4 (33.3) n (%), the “Psychiatric Disorders” value ([2]; 5 mg) was 4 (33.3) n (%) and the Sleep disturbance ([2]; 5 mg) was 1 (8.3) n (%). For the same molecule, the Vivid dreams ([2]; 5 mg) was 2 (16.7) n (%), the “At least 1 adverse event” value ([2]; 18 mg) was 11 (91.7) n (%) and the Dizziness ([2]; 18 mg) was 3 (25.0) n (%). The Drowsiness ([2]; 18 mg) was 3 (25.0) n (%), the Euphoric mood ([2]; 18 mg) was 3 (25.0) n (%) and the Feeling of relaxation ([2]; 18 mg) was 3 (25.0) n (%). The Floating feeling ([2]; 18 mg) was 1 (8.3) n (%), the “Gastrointestinal Disorders” value ([2]; 18 mg) was 1 (8.3) n (%) and the Headache ([2]; 18 mg) was 3 (25.0) n (%). The Intermittent headache ([2]; 18 mg) was 2 (16.7) n (%), the Nausea ([2]; 18 mg) was 1 (8.3) n (%) and the “Nervous System Disorders” value ([2]; 18 mg) was 8 (66.7) n (%). The “Psychiatric Disorders” value ([2]; 18 mg) was 6 (50.0) n (%), the Sleep disturbance ([2]; 18 mg) was 2 (16.7) n (%) and the Vivid dreams ([2]; 18 mg) was 2 (16.7) n (%). For the same molecule, the Tolerability ([2]; single doses of 5 and 18 mg) was “generally well tolerated”, the IC50 (hERG) was 21 µM and the IC20 (hERG; human, CHO-K1 cells expressing hERG) was 4 µM. The “Change from baseline in functional tremor frequency by iMotor, mean” value ([3]; Day 15 (8 mg BID)) was −2.66 Hz, the “Change from baseline in functional tremor frequency by iMotor, mean” value ([3]; Day 28 (10 mg BID)) was −2.41 Hz and the Developmental toxicity ([4]; 30, 100, or 300 mg/kg/day) was “No evidence of developmental toxicity”. For the same molecule, the “dose at which maternal toxicity was excessive” value [4, 7] was 1000 mg/kg/day, the “dose at which maternal toxicity was observed” value [4, 7] was ≥30 mg/kg/day and was excessive at and the “Doses with maternal toxicity” value ([4]; rabbit, in vivo) was at least 30 mg/kg/day.
`C=C(C)c1ccc(CC(=O)N[C@H](C)c2ccc(OCC(F)(F)F)cn2)cc1` [M01] showed an Inhibition [5] of 79%.
